Measurements reported in patent US8835395B2, “Protein peptide hydrogels” (Kansas State University Research Foundation, priority 2010, dated 2014).
Where a SMILES comes first, the peptide text is derived from it.

Assay: Solubility of peptide in neutral water
Assay type: physicochemical
Conditions: neutral water without any pH adjustment

CC[C@H](C)[C@H](NC(=O)[C@H](CC(C)C)NC(=O)[C@@H](N)Cc1ccccc1)C(=O)N[C@H](C(=O)N[C@H](C(=O)N1CCC[C@H]1C(=O)N1CCC[C@@H]1C(=O)NCC(=O)N1CCC[C@H]1C(=O)NCC(=O)NCC(=O)N[C@@H](CC(=O)O)C(=O)NCC(=O)N1CCC[C@H]1C(=O)NCC(=O)NCC(=O)N[C@@H](CC(=O)O)C(=O)O)[C@@H](C)CC)C(C)C [h5PP^De, FLIVI-PP^D-GPGGDGPGGD] (HELM PEPTIDE1{F.L.I.V.I.P.[dP].G.P.G.G.D.G.P.G.G.D}$$$$V2.0)
Solubility in water: soluble
